In PubChem BioAssay (NCI):
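GI50 marks 50% less growth. TGI marks complete inhibition of growth.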

Assays:
Experiment in all cases: NCI tumour cell line growth inhibition, 384-well format
SW-620 colon = test system: SW-620 colon
KM12 colon = test system: KM12 colon
ACHN renal = test system: ACHN renal
A498 renal = test system: A498 renal
HS 578T breast = test system: HS 578T breast
MCF7 breast = test system: MCF7 breast
MDA-MB-468 breast = test system: MDA-MB-468 breast
MALME-3M melanoma = test system: MALME-3M melanoma
SF-268 CNS = test system: SF-268 CNS
DU-145 prostate = test system: DU-145 prostate
HT29 colon = test system: HT29 colon
CAKI-1 renal = test system: CAKI-1 renal
LOX IMVI melanoma = test system: LOX IMVI melanoma
OVCAR-4 ovarian = test system: OVCAR-4 ovarian
UACC-257 melanoma = test system: UACC-257 melanoma
A549 NSCLC = test system: A549 NSCLC
NCI-H522 lung = test system: NCI-H522 lung
SN12C renal = test system: SN12C renal
HCC-2998 colon = test system: HCC-2998 colon
OVCAR-3 ovarian = test system: OVCAR-3 ovarian
HL-60(TB) leukemia = test system: HL-60(TB) leukemia
SK-OV-3 ovarian = test system: SK-OV-3 ovarian
OVCAR-8 ovarian = test system: OVCAR-8 ovarian
NCI-H226 lung = test system: NCI-H226 lung
K-562 leukemia = test system: K-562 leukemia
PC-3 prostate = test system: PC-3 prostate
HCT-15 colon = test system: HCT-15 colon
UO-31 renal = test system: UO-31 renal
SNB-75 CNS = test system: SNB-75 CNS
SK-MEL-5 melanoma = test system: SK-MEL-5 melanoma
COLO 205 colon = test system: COLO 205 colon
MDA-MB-435 melanoma = test system: MDA-MB-435 melanoma
786-0 renal = test system: 786-0 renal
SF-295 CNS = test system: SF-295 CNS
HCT-116 colon = test system: HCT-116 colon
SF-539 CNS = test system: SF-539 CNS
CCRF-CEM leukemia = test system: CCRF-CEM leukemia
SR leukemia = test system: SR leukemia
SK-MEL-28 melanoma = test system: SK-MEL-28 melanoma
MDA-MB-231 breast = test system: MDA-MB-231 breast
U251 glioblastoma = test system: U251 glioblastoma
OVCAR-5 ovarian = test system: OVCAR-5 ovarian
NCI/ADR-RES ovarian = test system: NCI/ADR-RES ovarian
NCI-H23 lung = test system: NCI-H23 lung
HOP-92 NSCLC = test system: HOP-92 NSCLC
EKVX NSCLC = test system: EKVX NSCLC
HOP-62 NSCLC = test system: HOP-62 NSCLC
MOLT-4 leukemia = test system: MOLT-4 leukemia
NCI-H322M lung = test system: NCI-H322M lung
IGROV1 ovarian = test system: IGROV1 ovarian
TK-10 renal = test system: TK-10 renal
RXF 393 renal = test system: RXF 393 renal
NCI-H460 NSCLC = test system: NCI-H460 NSCLC
T-47D breast = test system: T-47D breast
SNB-19 CNS = test system: SNB-19 CNS
BT-549 breast = test system: BT-549 breast
RPMI-8226 leukemia = test system: RPMI-8226 leukemia
M14 melanoma = test system: M14 melanoma
SK-MEL-2 melanoma = test system: SK-MEL-2 melanoma
UACC-62 melanoma = test system: UACC-62 melanoma

CCCS(=O)(=O)Nc1ccc(F)c(C(=O)c2c[nH]c3ncc(Cl)cc23)c1F
GI50 (SW-620 colon): 31.6 µM | TGI (SW-620 colon): 60 µM | GI50 (KM12 colon): 14.3 µM | TGI (KM12 colon): 33.3 µM | GI50 (ACHN renal): 4.26 µM | TGI (ACHN renal): 18.7 µM | GI50 (A498 renal): 5.21 µM | TGI (A498 renal): 20.3 µM | GI50 (HS 578T breast): 4.5 µM | TGI (HS 578T breast): 15.4 µM | GI50 (MCF7 breast): 20.3 µM | TGI (MCF7 breast): 50.7 µM | GI50 (MDA-MB-468 breast): 10.3 µM | TGI (MDA-MB-468 breast): 23.5 µM | GI50 (MALME-3M melanoma): 0.0363 µM | TGI (MALME-3M melanoma): 0.118 µM | GI50 (SF-268 CNS): 17.5 µM | TGI (SF-268 CNS): 44.7 µM | GI50 (DU-145 prostate): 9.18 µM | TGI (DU-145 prostate): 27.9 µM | GI50 (HT29 colon): 0.71 µM | TGI (HT29 colon): 17.1 µM | GI50 (CAKI-1 renal): 6.54 µM | TGI (CAKI-1 renal): 46 µM | GI50 (LOX IMVI melanoma): 2.64 µM | TGI (LOX IMVI melanoma): 15.9 µM | GI50 (OVCAR-4 ovarian): 21.1 µM | TGI (OVCAR-4 ovarian): 59.1 µM | GI50 (UACC-257 melanoma): 0.183 µM | TGI (UACC-257 melanoma): 1.18 µM | GI50 (A549 NSCLC): 12.3 µM | TGI (A549 NSCLC): 41.2 µM | GI50 (NCI-H522 lung): 16.1 µM | TGI (NCI-H522 lung): 32.1 µM | GI50 (SN12C renal): 19.6 µM | TGI (SN12C renal): 68.3 µM | GI50 (HCC-2998 colon): 20.6 µM | TGI (HCC-2998 colon): 35.1 µM | GI50 (OVCAR-3 ovarian): 13.5 µM | TGI (OVCAR-3 ovarian): 29.7 µM | GI50 (HL-60(TB) leukemia): 11.2 µM | TGI (HL-60(TB) leukemia): 23.3 µM | GI50 (SK-OV-3 ovarian): 4.11 µM | TGI (SK-OV-3 ovarian): 19.8 µM | GI50 (OVCAR-8 ovarian): 13.5 µM | TGI (OVCAR-8 ovarian): 39.5 µM | GI50 (NCI-H226 lung): 16.5 µM | TGI (NCI-H226 lung): 32.6 µM | GI50 (K-562 leukemia): 11.3 µM | TGI (K-562 leukemia): 23.7 µM | GI50 (PC-3 prostate): 16.3 µM | TGI (PC-3 prostate): 41 µM | GI50 (HCT-15 colon): 9.16 µM | TGI (HCT-15 colon): 22 µM | GI50 (UO-31 renal): 13.3 µM | TGI (UO-31 renal): 36.6 µM | GI50 (SNB-75 CNS): 11.2 µM | TGI (SNB-75 CNS): 34.2 µM | GI50 (SK-MEL-5 melanoma): 1.05 µM | TGI (SK-MEL-5 melanoma): 15 µM | GI50 (COLO 205 colon): 0.144 µM | TGI (COLO 205 colon): 13.6 µM | GI50 (MDA-MB-435 melanoma): 0.681 µM | TGI (MDA-MB-435 melanoma): 17.7 µM | GI50 ([…]-0 renal): 10.9 µM | TGI (786-0 renal): 25.6 µM | GI50 (SF-295 CNS): 7.44 µM | TGI (SF-295 CNS): 27.3 µM | GI50 (HCT-116 colon): 8.39 µM | TGI (HCT-116 colon): 23.8 µM | GI50 (SF-539 CNS): 15.1 µM | TGI (SF-539 CNS): 35.3 µM | GI50 (CCRF-CEM leukemia): 11.7 µM | TGI (CCRF-CEM leukemia): 24 µM | GI50 (SR leukemia): 3.93 µM | TGI (SR leukemia): 14.2 µM | GI50 (SK-MEL-28 melanoma): 0.0544 µM | TGI (SK-MEL-28 melanoma): 0.549 µM | GI50 (MDA-MB-231 breast): 15.3 µM | TGI (MDA-MB-231 breast): 29.8 µM | GI50 (U251 glioblastoma): 13.1 µM | TGI (U251 glioblastoma): 27.2 µM | GI50 (OVCAR-5 ovarian): 19.2 µM | TGI (OVCAR-5 ovarian): 64.3 µM | GI50 (NCI/ADR-RES ovarian): 17.1 µM | TGI (NCI/ADR-RES ovarian): 33.6 µM | GI50 (NCI-H23 lung): 18.3 µM | TGI (NCI-H23 lung): 37.8 µM | GI50 (HOP-92 NSCLC): 15 µM | TGI (HOP-92 NSCLC): 36.3 µM | GI50 (EKVX NSCLC): 16.3 µM | TGI (EKVX NSCLC): 41.3 µM | GI50 (HOP-62 NSCLC): 13.3 µM | TGI (HOP-62 NSCLC): 32.5 µM | GI50 (MOLT-4 leukemia): 12.3 µM | TGI (MOLT-4 leukemia): 24.9 µM | GI50 (NCI-H322M lung): 10.1 µM | TGI (NCI-H322M lung): 80.2 µM | GI50 (IGROV1 ovarian): 4.47 µM | TGI (IGROV1 ovarian): 17.3 µM | GI50 (TK-10 renal): 10.3 µM | TGI (TK-10 renal): 28.4 µM | GI50 (RXF 393 renal): 4.12 µM | TGI (RXF 393 renal): 13.8 µM | GI50 (NCI-H460 NSCLC): 6.96 µM | TGI (NCI-H460 NSCLC): 21.3 µM | GI50 (T-47D breast): 17.7 µM | TGI (T-47D breast): 55.6 µM | GI50 (SNB-19 CNS): 31.3 µM | TGI (SNB-19 CNS): 86 µM | GI50 (BT-549 breast): 15.5 µM | TGI (BT-549 breast): 29.3 µM | GI50 (RPMI-8226 leukemia): 4.76 µM | TGI (RPMI-8226 leukemia): 15.7 µM | GI50 (M14 melanoma): 0.0582 µM | TGI (M14 melanoma): 2.1 µM

O=NN(CCCl)C(=O)NCCCl
GI50 (SW-620 colon): 54.2 µM | GI50 (MDA-MB-468 breast): 23.7 µM | GI50 (MALME-3M melanoma): 75.9 µM | GI50 (SF-268 CNS): 15.9 µM | GI50 (CAKI-1 renal): 81.2 µM | GI50 (LOX IMVI melanoma): 24.2 µM | GI50 (NCI-H522 lung): 32.4 µM | GI50 (SN12C renal): 74.1 µM | GI50 (SK-MEL-2 melanoma): 61.5 µM | GI50 (HL-60(TB) leukemia): 15.1 µM | TGI (HL-60(TB) leukemia): 28.5 µM | GI50 (OVCAR-8 ovarian): 97.8 µM | GI50 (K-562 leukemia): 46.5 µM | GI50 (HCT-15 colon): 46.5 µM | GI50 (SNB-75 CNS): 26.7 µM | GI50 ([…]-0 renal): 43.3 µM | GI50 (SF-295 CNS): 25.4 µM | TGI (SF-295 CNS): 73 µM | GI50 (HCT-116 colon): 49.8 µM | GI50 (SF-539 CNS): 24.4 µM | TGI (SF-539 CNS): 90.1 µM | GI50 (CCRF-CEM leukemia): 22.3 µM | TGI (CCRF-CEM leukemia): 40.9 µM | GI50 (MDA-MB-231 breast): 55.9 µM | GI50 (U251 glioblastoma): 23.9 µM | GI50 (UACC-62 melanoma): 19.4 µM | GI50 (HOP-62 NSCLC): 34.6 µM | GI50 (MOLT-4 leukemia): 15.6 µM | TGI (MOLT-4 leukemia): 29.5 µM | GI50 (RXF 393 renal): 56.9 µM | GI50 (SNB-19 CNS): 56.2 µM | GI50 (BT-549 breast): 36 µM | GI50 (RPMI-8226 leukemia): 20 µM | TGI (RPMI-8226 leukemia): 48.7 µM | GI50 (M14 melanoma): 69.9 µM
